Each structure is given as a SMILES string. Values joined by “and” are separate entries in the source; they are usually repeats but may differ in a detail not shown here. Equal entries are not always repeated. Inconclusive results and toxic doses are left out.

The test system of this experiment is B6C3F1 mice, ip Sarcoma M5076, median survival T/C. The experiment is described as follows: NCI In Vivo Anticancer Drug Screen. Data for tumor model Sarcoma M5076 (intraperitoneal) in B6C3F1 mice. To be noted: endpoint: median survival time, higher = longer survival. A digest of the protocol:
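Survival measured in treated (T) and vehicle control (C) mice with transplantable tumour; result given as T divided by C.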

Setting [1] is: dose: 12.5 mg/kg/injection, schedule: Q04DX004 (ip), vehicle: Klucel (hydroxypropylcellulose) (HPC).
The mark [2] stands for this setting: dose: 50.0 mg/kg/injection, schedule: Q04DX004 (ip), vehicle: saline with Tween-80.
[3] abbreviates: dose: 100.0 mg/kg/injection, schedule: Q04DX004 (ip), vehicle: saline with Tween-80.
Where [4] appears, read: dose: 200.0 mg/kg/injection, schedule: Q04DX004 (ip), vehicle: saline with Tween-80.
Setting [5] is: dose: 1.25 mg/kg/injection, schedule: Q04DX004 (ip), vehicle: Klucel (hydroxypropylcellulose) (HPC).
Where [6] appears, read: dose: 2.5 mg/kg/injection, schedule: Q04DX004 (ip), vehicle: Klucel (hydroxypropylcellulose) (HPC).
Where [7] appears, read: dose: 10.0 mg/kg/injection, schedule: Q04DX004 (ip), vehicle: Klucel (hydroxypropylcellulose) (HPC).
Where [8] appears, read: dose: 100.0 mg/kg/injection, schedule: Q04DX004 (ip), vehicle: Klucel (hydroxypropylcellulose) (HPC).

With `O=C1c2cccc(NCCCNCCO)c2C(=O)c2cccc(NCCCNCCO)c21`, the T/C (dose: 12.5 mg/kg/injection, schedule: Q04DX004 (ip), vehicle: acid diluted with saline) was 116 % of control; the T/C (dose: 25.0 mg/kg/injection, schedule: Q04DX004 (ip), vehicle: acid diluted with saline) is 99 % of control; the T/C (dose: 50.0 mg/kg/injection, schedule: Q04DX004 (ip), vehicle: acid diluted with saline) was 91 % of control.

On to `CCCS(=N)(=O)CCC(N)C(=O)O` (stereo unspecified), for which the T/C reads like this: (dose: 50.0 mg/kg/injection, schedule: Q04DX004 (ip), vehicle: saline) 103 % of control; (dose: 100.0 mg/kg/injection, schedule: Q04DX004 (ip), vehicle: saline) 105 % of control; (dose: 200.0 mg/kg/injection, schedule: Q04DX004 (ip), vehicle: saline) 102 % of control; (dose: 400.0 mg/kg/injection, schedule: Q04DX004 (ip), vehicle: saline) 102 % of control; (dose: 800.0 mg/kg/injection, schedule: Q04DX004 (ip), vehicle: saline) 105 % of control.

As for `COC1CC2C=C(C)/C=C/C=C/C(=O)NC(c3ccccc3)C/C=C/CCC(O)CC(=O)C2=C1O` (stereo unspecified), the T/C is 112 % of control (dose: 3.12 mg/kg/injection, schedule: Q04DX004 (ip), vehicle: Klucel (hydroxypropylcellulose) (HPC)); 118 % of control (dose: 6.25 mg/kg/injection, schedule: Q04DX004 (ip), vehicle: Klucel (hydroxypropylcellulose) (HPC)); 110 % of control under setting [1]; 123 % of control (dose: 25.0 mg/kg/injection, schedule: Q04DX004 (ip), vehicle: Klucel (hydroxypropylcellulose) (HPC)).

Consider `COCCCn1c(C(Cl)(Cl)Cl)nn2c(=O)c3ccccc3nc2c1=O`, for which the T/C was 103 % of control under setting [2]; 99 % of control under setting [3]; 94 % of control under setting [4]; 90 % of control (dose: 400.0 mg/kg/injection, schedule: Q04DX004 (ip), vehicle: saline with Tween-80).

As to `COc1cc2cc3c(c(O)c2c(O)c1/C=C/C(C)C)C(=O)CC(C)(OC(C)=O)C3` (stereo unspecified), the T/C is, setting by setting: (dose: 0.62 mg/kg/injection, schedule: Q01DX009 (ip), vehicle: Klucel (hydroxypropylcellulose) (HPC)) 117 % of control; (dose: 0.63 mg/kg/injection, schedule: Q01DX009 (ip), vehicle: Klucel (hydroxypropylcellulose) (HPC)) 98 % of control and 104 % of control and 106 % of control; (dose: 0.63 mg/kg/injection, schedule: Q04DX004 (ip), vehicle: Klucel (hydroxypropylcellulose) (HPC)) 113 % of control; under setting [5], 121 % of control; under setting [6], 123 % of control; (dose: 3.6 mg/kg/injection, schedule: Q04DX004 (ip), vehicle: Klucel (hydroxypropylcellulose) (HPC)) 106 % of control. The T/C runs as follows: (dose: 6.0 mg/kg/injection, schedule: Q04DX004 (ip), vehicle: Klucel (hydroxypropylcellulose) (HPC)) 110 % of control; under setting [7], 118 % of control; (dose: 16.67 mg/kg/injection, schedule: Q04DX004 (ip), vehicle: Klucel (hydroxypropylcellulose) (HPC)) 117 % of control.

As to `CC(C)c1cc(C(=O)O)c(O)c(C(C)C)c1.CC(C)c1cc(C(=O)O)c(O)c(C(C)C)c1.[Cu]`, the T/C by setting is: (dose: 1.5 mg/kg/injection, schedule: Q04DX004 (ip), vehicle: saline with Tween-80) 95 % of control and 104 % of control; (dose: 3.0 mg/kg/injection, schedule: Q04DX004 (ip), vehicle: saline with Tween-80) 102 % of control and 104 % of control; (dose: 6.0 mg/kg/injection, schedule: Q04DX004 (ip), vehicle: saline with Tween-80) 96 % of control and 102 % of control; (dose: 12.0 mg/kg/injection, schedule: Q04DX004 (ip), vehicle: saline with Tween-80) 88 % of control and 102 % of control; (dose: 12.5 mg/kg/injection, schedule: Q04DX004 (ip), vehicle: saline with Tween-80) 93 % of control; (dose: 24.0 mg/kg/injection, schedule: Q04DX004 (ip), vehicle: saline with Tween-80) 90 % of control.

With `COc1ccc(C(N)=O)cc1N=NN(C)C`, the T/C by setting is: under setting [1], 118 % of control and 121 % of control; under setting [8], 154 % of control and 179 % of control.

Take `C/C([O-])=c1\c(C)nn2ccc[n+]12`: the T/C is, setting by setting: (dose: 25.0 mg/kg/injection, schedule: Q04DX004 (ip), vehicle: saline with Tween-80) 100 % of control; under setting [2], 106 % of control; under setting [3], 103 % of control; under setting [4], 94 % of control.

For the molecule `NCCCN=c1ccc2c3c1c(O)c1c(O)ccc(=O)c1c3[nH]n2CCNCCO`, the T/C (dose: 8.0 mg/kg/injection, schedule: Q04DX004 (ip), vehicle: water) was 171 % of control and the T/C (dose: 16.0 mg/kg/injection, schedule: Q04DX004 (ip), vehicle: water) was 186 % of control.

Consider `Nc1nc(N)c2cc(C=O)ccc2n1`, for which the T/C (dose: 3.13 mg/kg/injection, schedule: Q04DX004 (ip), vehicle: water) is 91 % of control and 98 % of control; the T/C (dose: 6.25 mg/kg/injection, schedule: Q04DX004 (ip), vehicle: water) is 94 % of control; the T/C (dose: 12.5 mg/kg/injection, schedule: Q04DX004 (ip), vehicle: water) is 101 % of control and 103 % of control; the T/C (dose: 50.0 mg/kg/injection, schedule: Q04DX004 (ip), vehicle: water) is 88 % of control.

`CC(=O)NC(CSC1=C2NC(=O)\C=C/C=C/C=C\C(C)C(O)CC(=O)/C(C)=C\CC(O)/C=C/C(C)C(O)C(C)C=C(C)C(=O)c3c(O)c(C)cc(c3C1=O)C2=O)C(=O)O` (stereo unspecified): the T/C under setting [5] is 100 % of control; the T/C under setting [6] is 100 % of control; the T/C (dose: 5.0 mg/kg/injection, schedule: Q04DX004 (ip), vehicle: Klucel (hydroxypropylcellulose) (HPC)) was 101 % of control; the T/C under setting [7] was 93 % of control; the T/C (dose: 20.0 mg/kg/injection, schedule: Q04DX004 (ip), vehicle: Klucel (hydroxypropylcellulose) (HPC)) is 100 % of control.

Regarding `Cc1ccc(/C=C/C(=O)/C=C/c2ccc(C)o2)o1`, the T/C was 101 % of control (dose: 50.0 mg/kg/injection, schedule: Q04DX004 (ip), vehicle: other); 109 % of control (dose: 100.0 mg/kg/injection, schedule: Q04DX004 (ip), vehicle: other); 108 % of control (dose: 200.0 mg/kg/injection, schedule: Q04DX004 (ip), vehicle: other); 101 % of control (dose: 400.0 mg/kg/injection, schedule: Q04DX004 (ip), vehicle: other); 95 % of control (dose: 800.0 mg/kg/injection, schedule: Q04DX004 (ip), vehicle: other).

For the molecule `C=C(c1ccc(OC)c(OC)c1)c1nccc2cc(OC)c(OC)cc12`, the T/C reads like this: under setting [8], 102 % of control; (dose: 200.0 mg/kg/injection, schedule: Q04DX004 (ip), vehicle: Klucel (hydroxypropylcellulose) (HPC)) 119 % of control; (dose: 400.0 mg/kg/injection, schedule: Q04DX004 (ip), vehicle: Klucel (hydroxypropylcellulose) (HPC)) 98 % of control; (dose: 800.0 mg/kg/injection, schedule: Q04DX004 (ip), vehicle: Klucel (hydroxypropylcellulose) (HPC)) 102 % of control.

With `O=C(CN1CCC(O)(c2ccc(F)cc2)CC1)N1CCN(C/C=C/c2ccccc2)CC1`, the T/C reads like this: (dose: 37.5 mg/kg/injection, schedule: Q04DX004 (ip), vehicle: saline with Tween-80) 103 % of control; (dose: 75.0 mg/kg/injection, schedule: Q04DX004 (ip), vehicle: saline with Tween-80) 100 % of control; (dose: 150.0 mg/kg/injection, schedule: Q04DX004 (ip), vehicle: saline with Tween-80) 102 % of control; (dose: 300.0 mg/kg/injection, schedule: Q04DX004 (ip), vehicle: saline with Tween-80) 94 % of control; (dose: 600.0 mg/kg/injection, schedule: Q04DX004 (ip), vehicle: saline with Tween-80) 95 % of control.

For `CCOC(=O)Nc1cc2c(c(N)n1)N=C(c1ccc3ccccc3c1)CN2`, the T/C runs as follows: (dose: 3.75 mg/kg/injection, schedule: Q04DX004 (ip), vehicle: saline with Tween-80) 110 % of control; (dose: 7.5 mg/kg/injection, schedule: Q04DX004 (ip), vehicle: saline with Tween-80) 108 % of control; (dose: 15.0 mg/kg/injection, schedule: Q04DX004 (ip), vehicle: saline with Tween-80) 120 % of control; (dose: 30.0 mg/kg/injection, schedule: Q04DX004 (ip), vehicle: saline with Tween-80) 111 % of control.

The record behind these values is PubChem BioAssay AID292 (DTP/NCI, 2004).
